Values of other authors in patent US20070237728A1, “Method and Composition for Dental Bleaching” (HIGH TECH LASER, priority 2000, published 2007).
Read-outs that look alike come from different tables or passages of the source.

Test system: teeth

Row | SMILES | type of teeth discolouration caused (tetracycline staining of teeth) | type of teeth discolouration caused (in vivo)
1 | CN(C)[C@@H]1C(O)=C(C(N)=O)C(=O)[C@@]2(O)C(O)=C3C(=O)c4c(O)cccc4[C@@](C)(O)[C@H]3C[C@@H]12 [tetracycline] | yellow discolouration | –
2 | CN(C)[C@@H]1C(=O)C(C(N)=O)=C(O)[C@@]2(O)C(=O)C3=C(O)c4c(O)cccc4[C@@](C)(O)[C@H]3[C@H](O)[C@@H]12 [oxytetracyclin] | – | yellow discolouration
3 | CN(C)[C@@H]1C(O)=C(C(N)=O)C(=O)[C@@]2(O)C(O)=C3C(=O)c4c(O)ccc(Cl)c4[C@@H](O)[C@H]3C[C@@H]12 [dimethylchlorotetracyclin] | yellow discolouration | –
